Test results taken from US20100248229A1, “INVITRO HUMAN EMBRYONIC MODEL AND A METHOD THEREOF” (Stempeutics Research Private Limited, priority 2007, published 2010).
Entries after “also recorded” stand apart in the source; their conditions may differ.

Tests used:
Format in all cases: cell-based, human
[1] = test system: EBs; assay: Effect on the germ lineages: RT-PCR of pluripotency and lineage markers in four day old EBs; settings: 12 pg/ml for 2 to 4 days
Method: Day 4 to 10 old EBs were maintained for 2 to 10 days in presence or absence of various (atleast 8 different) dilutions of the drug supplemented to the standard EB culture media. At the end of the incubation period the EBs were collected and the RNA is isolated from both the control and treated groups. The RNA was used for RT-PCR analysis of a set of developmentally important genes, pluripotency markers like (Nanog, Oct4, Sox2, and HMGB 1), lineage markers for ectoderm, endoderm, mesoderm and trophectoderm listed in table 1, 2, 3, 4, and also for a set of epigenetic signature genes (table nos. 6-7) identified by applicant. Alteration in the expression patterns of these genes in presence or absence of the compound in these EBs indicates their embryotoxic effect and potential to perturb the formation of specific or multiple lineages.
Four day old EBs were exposed to gram negative bacterial endotoxins/LPS at a concentration of 12 pg/ml for 2 to 4 days. The EBs were collected and analysed for pluripotency markers like Oct4, Sox2, HMGB1, and lineage markers like Nestin, PIII-tubulin, GATA4, BMP2, Brachury, Hand1 and BMP4 were studied, by RT-PCR. […] HMGB 1 expression was not found in these normal EBs. […] However, the mesoderm markers BMP2, Hand1, BMP4 and Brachury were silenced in the endotoxin treated EBs. […] This also explains many birth defects, which occurs as a result of gram negative bacterial infections. The expression of the LPS inducible cytokine and pluripotency associated gene HMGB1 in the EBs upon LPS exposure indicate its probable role in the formation of poorly formed embryos during such infections.

[2] = test system: EBs derived from hESC line HUES9; assay: RT-PCR of germ lineage markers and HMGB1 in LPS-exposed HUES9 EBs
Description: EBs derived from the human embryonic stem cell (hESC) line HUES9 were exposed to 12.5 pg/ml of LPS for 48 hrs. The expression profile of the ectoderm, endoderm, mesoderm and trophectoderm lineage markers like βIII-tubulin, GATA4, BMP2, Brachury and β-hCG were studied, by RT-PCR and Immunofluorescence. Inhibition of mesoderm induction was confirmed by RT-PCR analysis for hANP, cTnT, ABCG2, GATA2, BMP4 and HAND1. Osteoblast differentiation was induced in the EBs, and confirmed by von Kosa and Alizarin red staining. A comet assay was also done to assess the degree of apoptosis in these EBs.
Exposure of EBs to LPS: EBs at day-2.5 were exposed to 12.5 pg/ml of Endotoxin/lipopolysaccharide (LPS) (Sigma) for 48 hrs supplemented in culture medium. The normal and the endotoxin treated EBs were harvested on day 4.5. Post exposure, the control and endotoxin treated EBs were divided in two groups. One group was lysed in TRIZOL for RNA isolation and the other group was fixed in 4% paraformaldehyde for immunofluorescence. The expression profile of the ectoderm, endoderm, mesoderm and trophectoderm lineage markers like PHI-tubulin, GATA4, BMP2, Brachury and β-hCG etc. were studied by RT-PCR and Immunofluorescence. The expression of the LPS-inducible and pluripotency related DNA binding protein HMGB1 was also studied in both the control and treated EBs.
RT-PCR: Total RNA from cells was isolated using TRIZOL-LS Reagent (Invitrogen) as per the manufacturer's protocol. Complementary DNA was synthesized using the SuperScript III First-Strand Synthesis System (Invitrogen) as per the manufacturer's instructions. Polymerase Chain Reaction (PCR) was carried out using 1U Tag DNA Polymerase (Sigma) and MgCl2 to a final concentration of 1.5 mM in a total volume of 25 μl/reaction. β-actin and GAPDH were used as the housekeeping controls. PCR cycles consisted of an initial denaturation at 95° C. for 5 minutes followed by 35 amplification cycles of denaturation at 94° C. for 45 seconds, annealing for 45 seconds, and extension at 72° C. for 45 seconds and final extension at 72° C. for 10 minutes.

[3] = test system: EBs derived from hESC line HUES9; assay: Comet assay: DNA fragmentation in EBs; settings: EBs exposed for 48 hours
Method: Comet assay: Detection of DNA damage in individual EBs was carried out with a slight modification of the method described by. Comet tail length was calculated by measuring the streak of DNA comet tail between the edge of the embryoid bodies till the end of tail using Nikon Eclipse 90i microscope (Nikon Corporation, Japan) and Image-Pro Express software (Media Cybernetics, Inc, Silver Spring, Md.).

[4] = test system: EBs; assay: Methylation specific PCR (MSP) and mRNA expression of epigenetically regulated genes in EBs; settings: 48 hrs, 5 ug/ml
Description: Methylation status of several of the epigenetically regulated genes and the imprinted genes in response to exposure to various compounds/drugs or biologicals were screened.

[5] = 12.5 pg/ml for 48 hrs, EBs harvested day 4.5

## lipopolysaccharide [LPS]
[1]
  expression of Nestin, βIII-tubulin and GATA4 (RT-PCR): positive expression
  expression of mesoderm markers BMP2, Hand1, BMP4 and Brachury (RT-PCR): silenced
[1]; not found in normal EBs
  expression of HMGB1 (RT-PCR): positive expression
[2]; 12.5 pg/ml for 48 hrs
  expression of mesoderm markers (Brachury, BMP2, hANP, cTnT, ABCG2, GATA2, BMP4, HAND1): no expression; also recorded: selectively silenced; also recorded: specific silencing
[2]; [5]
  mRNA expression of HMGB1, βIII-tubulin, GATA4 and β-hCG: positive mRNA expression
  mRNA expression of mesoderm markers BMP4, GATA2, ABCG2, cTnT, hANP and HAND1: absence of mRNA expressions
  mRNA expression of mesoderm markers Brachury and BMP2: no mRNA expressions
[2]; 12.5 pg/ml for 48 hrs, not expressed in normal EBs
  HMGB1 expression in EBs: positive or induced expression; also recorded: induced
[2]; exposure for 48 hrs
  functional mesoderm formation in EBs: inhibited
[3]
  DNA tailing or fragmentation compared to control: more DNA tailing or fragmentation
[3]; control 2.48±1.0701 μm
  DNA tailing or fragmentation (comet tail length, average): 21.48±12.443 μm
[4]; control EBs positive
  mRNA expression of SDHD, DYPS and CDH1: negative mRNA expression/silencing
[4]; control: one of the alleles methylated
  methylation status of SDHD, DYPS and CDH1 (MSP after bisulphite treatment): both the alleles of these genes were methylated
